Measurements published in US20260078120A1, “SUBSTITUTED PYRIDOPYRIMIDINONES” (MIRATI THERAPEUTICS, INC., priority 2022, published 2026).
Like-named read-outs stand apart in the source and are kept apart here.

Columns and labels:
[1] = tested on: T47D (PI3Kα H1047R mutant) cells; assay: CellTiter-Glo 2.0 luminescent cell viability assay, 72 hours, T47D cells; type: cell-based; conditions: Homo sapiens, T47D, 72 h
Description: This Example illustrates that exemplary compounds of the present invention decrease the viability of cells.
(§1) The ability of a compound of Formula (I) to decrease the viability of cells was measured using CellTiter-Glo 2.0 (CTG) Luminescent Cell Viability Assay (#G9241) obtained from Promega (Madison, WI).
To prepare assay plates for viability assays, cells were trypsinized, resuspended in fresh media, and viable cells were counted utilizing trypan blue exclusion. T47D, SKBR3, or MKN1 cells were seeded at 1000 cells in 30 μl per well in a solid white flat bottom 384 cell culture plate (Perkin Elmer #6007680) and incubated at 37° C. overnight.
(§2) Assay day 1, cells were dosed using an Echo Liquid Handler (Beckman Coulter) with compounds at a 10 um starting concentration and serially diluted (1:4) for a total of 10 concentrations. Cells were incubated for approximately 72 hours with the compounds (solubilized in DMSO) at 37° C. After 72 hours of treatment, cell plates were equilibrated to room temperature before adding 15 μl of CTG to each well, plates were then covered in aluminum foil to protect from light, incubated at room temperature for 30 minutes on a microtiter plate shaker, and luminescence readings were collected using a CLARIOstar microplate reader (BMG Labtech, Germany). Percent of vehicle control values were plotted as log (inhibitor) vs. response-Variable slope (four parameters) for curve fitting and IC50 values were determined using XLfit.

[2] = tested on: SKBR3 (PI3Kα wild type) cells; assay: CellTiter-Glo 2.0 luminescent cell viability assay, 72 hours, SKBR3 cells; type: cell-based; conditions: Homo sapiens, SK-BR-3, 72 h
Description: as §1
To prepare assay plates for viability assays, cells were trypsinized, resuspended in fresh media, and viable cells were counted utilizing trypan blue exclusion.
as §2

[3] = T47D (PI3Kα H1047R mutant) cells, CellTiter-Glo, approximately 72 hours, read-out: T47D (H1047R mutant) Viability IC50
[4] = SKBR3 (PI3Kα wild type) cells, CellTiter-Glo, approximately 72 hours, read-out: SKBR3 (WT) Viability IC50

SMILES	IC50 [1, 3] [nM]	IC50 [2, 4] [nM]	IC50 ([1]; read-out: T47D (H1047R mutant) Viability IC50 (nM)) [nM]	IC50 ([2]; read-out: SKBR3 (WT) Viability IC50 (nM)) [nM]
Cc1cc([C@@H](C)Nc2ccccc2C(=O)O)c2nc(-c3cnn(-c4ccc(C#N)cc4)c3)cc(=O)n2c1 [Example 11-240, (R)-2-((1-(2-(1-(4-cyanophenyl)-1H-pyrazol-4-yl)-7-methyl-4-oxo-4H-pyrido[1,2-a]pyrimidin-9-yl)ethyl)amino)benzoic acid]	573	3230	–	–
Cc1cc([C@@H](C)Nc2ccccc2C(=O)O)c2nc(N3CCN(Cc4cccnc4)CC3C)c(C)c(=O)n2c1 (stereo partly drawn) [Example 10-132, 2-(((1R)-1-(3,7-dimethyl-2-(2-methyl-4-(pyridin-3-ylmethyl)piperazin-1-yl)-4-oxo-4H-pyrido[1,2-a]pyrimidin-9-yl)ethyl)amino)benzoic acid]	51	> 10000	–	–
C=C(C#N)CNc1nc2c([C@@H](C)Nc3ccccc3C(=O)O)cc(C)cn2c(=O)c1C#N [Example 11-108, (R)-2-((1-(3-cyano-2-((2-cyanoallyl)amino)-7-methyl-4-oxo-4H-pyrido[1,2-a]pyrimidin-9-yl)ethyl)amino)benzoic acid]	3690	> 10000	–	–
Cc1cc([C@@H](C)Nc2ccccc2C(=O)O)c2nc(N3CC4(C3)CC3(CCC3)C4)c(C)c(=O)n2c1 [Example 11-26, (R)-2-((1-(2-(2-azadispiro[3.1.3^6.1^4]decan-2-yl)-3,7-dimethyl-4-oxo-4H-pyrido[1,2-a]pyrimidin-9-yl)ethyl)amino)benzoic acid]	216	> 10000	–	–
C#Cc1ccc(N[C@H](C)c2cc(C)cn3c(=O)cc(N4CCCCC4)nc23)c(C(=O)O)c1 [Example 11-232, (R)-5-ethynyl-2-((1-(7-methyl-4-oxo-2-(piperidin-1-yl)-4H-pyrido[1,2-a]pyrimidin-9-yl)ethyl)amino)benzoic acid]	3280	> 10000	–	–
Cc1cc([C@@H](C)Nc2ccccc2C(=O)O)c2nc(N3CC4CC(C3)C4(C)O)c(C)c(=O)n2c1 (stereo partly drawn) [Example 11-34, 2-(((1R)-1-(2-(6-hydroxy-6-methyl-3-azabicyclo[3.1.1]heptan-3-yl)-3,7-dimethyl-4-oxo-4H-pyrido[1,2-a]pyrimidin-9-yl)ethyl)amino)benzoic acid]	215	> 10000	–	–
Cc1cc([C@@H](C)Nc2ccccc2C(=O)O)c2nc(N3C[C@H](F)C[C@H](F)C3)c(C#N)c(=O)n2c1 [Example 11-48, 2-(((R)-1-(3-cyano-2-((3R,5S)-3,5-difluoropiperidin-1-yl)-7-methyl-4-oxo-4H-pyrido[1,2-a]pyrimidin-9-yl)ethyl)amino)benzoic acid]	854	> 10000	–	–
Cc1cc([C@@H](C)Nc2ccc(C)nc2C(=O)O)c2nc(N3CCC(F)(F)CC3)c(C#N)c(=O)n2c1 [Example 10-17, (R)-3-((1-(3-cyano-2-(4,4-difluoropiperidin-1-yl)-7-methyl-4-oxo-4H-pyrido[1,2-a]pyrimidin-9-yl)ethyl)amino)-6-methylpicolinic acid]	38.4	> 10000	–	–
Cc1cc([C@@H](C)Nc2ccccc2C(=O)O)c2nc(N3CCC4(CCOC4)C3)c(C)c(=O)n2c1 (stereo partly drawn) [Example 10-138, 2-(((1R)-1-(3,7-dimethyl-4-oxo-2-(2-oxa-7-azaspiro[4.4]nonan-7-yl)-4H-pyrido[1,2-a]pyrimidin-9-yl)ethyl)amino)benzoic acid]	71.5	> 10000	–	–
Cc1cc([C@@H](C)Nc2ccccc2C(=O)O)c2nc(N3CCC[C@H](C(F)(F)F)C3)c(C#N)c(=O)n2c1 [Example 11-210, 2-(((R)-1-(3-cyano-7-methyl-4-oxo-2-((S)-3-(trifluoromethyl)piperidin-1-yl)-4H-pyrido[1,2-a]pyrimidin-9-yl)ethyl)amino)benzoic acid]	361	> 10000	–	–
Cc1cc([C@@H](C)Nc2ccccc2C(=O)O)c2nc(N3C4CCC3CC(c3ccnn3C)C4)c(C)c(=O)n2c1 (stereo partly drawn) [Example 10-2, 2-(((1R)-1-(3,7-dimethyl-2-(3-(1-methyl-1H-pyrazol-5-yl)-8-azabicyclo[3.2.1]octan-8-yl)-4-oxo-4H-pyrido[1,2-a]pyrimidin-9-yl)ethyl)amino)benzoic acid]	–	–	4.72	> 10000
Cc1cc([C@@H](C)Nc2ccccc2C(=O)O)c2nc(N3C4CCC3c3ccccc34)c(C#N)c(=O)n2c1 [Example 11-214, 2-(((1R)-1-(3-cyano-7-methyl-4-oxo-2-(1,2,3,4-tetrahydro-1,4-epiminonaphthalen-9-yl)-4H-pyrido[1,2-a]pyrimidin-9-yl)ethyl)amino)benzoic acid]	262	> 10000	–	–
Cc1cc([C@@H](C)Nc2ccccc2C(=O)O)c2nc(N[C@@H](C3CC3)C(F)(F)F)c(C#N)c(=O)n2c1 [Example 11-161, 2-(((R)-1-(3-cyano-2-(((S)-1-cyclopropyl-2,2,2-trifluoroethyl)amino)-7-methyl-4-oxo-4H-pyrido[1,2-a]pyrimidin-9-yl)ethyl)amino)benzoic acid]	1050	> 10000	–	–

Now from value to compound, other results behind:

IC50 [1, 3] [nM]	IC50 [2, 4] [nM]	SMILES	IC50 ([1]; read-out: T47D (H1047R mutant) Viability IC50 (nM)) [nM]	IC50 ([2]; read-out: SKBR3 (WT) Viability IC50 (nM)) [nM]
> 10000	> 10000	Cc1cc(C(C)Nc2ccccc2)c2nc(N3CCOCC3)cc(=O)n2c1 (stereo not shown) [Example 11-421, 7-methyl-2-morpholino-9-(1-(phenylamino)ethyl)-4H-pyrido[1,2-a]pyrimidin-4-one]	–	–
4020	> 10000	Cc1cc(C(C)Nc2ccccc2C(=O)O)c2nc(-c3ccc(=O)n(C)c3)cc(=O)n2c1 (stereo not shown) [Example 11-383, 2-((1-(7-methyl-2-(1-methyl-6-oxo-1,6-dihydropyridin-3-yl)-4-oxo-4H-pyrido[1,2-a]pyrimidin-9-yl)ethyl)amino)benzoic acid]	–	–
> 10000	> 10000	Cc1cc(C(C)Nc2ccccc2C(=O)O)c2nc(Oc3ccccc3)cc(=O)n2c1 (stereo not shown) [Example 11-341, 2-((1-(7-methyl-4-oxo-2-phenoxy-4H-pyrido[1,2-a]pyrimidin-9-yl)ethyl)amino)benzoic acid]	–	–
4470	> 10000	Cc1cc(C(C)Nc2ccccc2C(=O)O)c2nc(N3CCCC(C)(O)C3)cc(=O)n2c1 (stereo not shown) [Example 11-342, 2-((1-(2-(3-hydroxy-3-methylpiperidin-1-yl)-7-methyl-4-oxo-4H-pyrido[1,2-a]pyrimidin-9-yl)ethyl)amino)benzoic acid]	–	–
114	> 10000	Cc1cc([C@@H](C)Nc2ccccc2C(=O)O)c2nc(N3CCC(F)(F)CC3)c(C)c(=O)n2c1 [Example 11-303, (R)-2-((1-(2-(4,4-difluoropiperidin-1-yl)-3,7-dimethyl-4-oxo-4H-pyrido [1,2-a]pyrimidin-9-yl)ethyl)amino)benzoic acid]	–	–
> 10000	> 10000	COc1cc(=O)n2cc(C)cc(C(C)Nc3ccccc3C(=O)O)c2n1 (stereo not shown) [Example 11-372, 2-((1-(2-methoxy-7-methyl-4-oxo-4H-pyrido[1,2-a]pyrimidin-9-yl)ethyl)amino)benzoic acid]	–	–
856	–	Cc1cc(C(C)Nc2cccc(F)c2C(=O)O)c2nc(N3Cc4ccccc4C3)c(C)c(=O)n2c1 (stereo not shown) [Example 11-368, 2-fluoro-6-((1-(2-(isoindolin-2-yl)-3,7-dimethyl-4-oxo-4H-pyrido[1,2-a]pyrimidin-9-yl)ethyl)amino)benzoic acid]	–	–
> 10000	–	Cc1cc(C(C)Nc2ccccc2C(=O)O)c2nc(N3CCN(C)C(=O)C3)cc(=O)n2c1 (stereo not shown) [Example 11-384, 2-((1-(7-methyl-2-(4-methyl-3-oxopiperazin-1-yl)-4-oxo-4H-pyrido[1,2-a]pyrimidin-9-yl)ethyl)amino)benzoic acid]	–	–
